According to patent US20160168537A1, “DIFFERENTIATED CELLULAR COMPOSITIONS AND METHODS FOR THEIR PREPARATION AND USE” (LIFE TECHNOLOGIES CORPORATION, priority 2013, published 2016):

Key:
[1] = test system: CYP2B6; conditions: primary human hepatocytes, via PXR activation; stated as typical behaviour; cited from earlier work
[2] = test system: CYP2B6; assay: P450 induction assay in HepaRG cells (CYP2B6 activity, hydroxybupropion formation from bupropion); assay type: cell-based; conditions: HepaRG cells cultured without matrix overlay; 10 μM RIF, 72 hours of treatment; induction is seen only when the cells are overlayed
Description: Cryopreserved HepaRG™ cells (Life Technologies Corporation) are terminally differentiated prior to cryopreservation. Frozen HepaRG™ cells were thawed and plated per manufacturer's instructions and placed into 37° C., 5% CO2 cell culture incubator. 24 hours after plating, media was aspirated and cells were overlayed using 0.35 mg/mL Geltrex® matrix in 4° C. in 770 media. 72 hours after plating, media was aspirated and media was exchanged with either 740 or 750 media containing 0.1% DMSO, 50 μM omeprazole (OMP), 1 mM Phenobarbital (PB), or 10 μM Rifampicin (RIF). 740 and 750 media containing vehicle or prototypical inducers was replaced daily for a total of 72 hours of treatment. Day 6 of culture (24 hours after last dosing), P450 activity was evaluated and total RNA was isolated. P450 activity was evaluated utilizing in situ incubations of prototypical substrates (100 μM phenacetin, 500 bupropion, 10 μM midazolam, or 200 μM testosterone) in Hanks' Balanced Salts Solution (HBSS) for 1 hour at 37° C. shaking on microplate shaker @600 rpm. After in situ incubations were completed, incubation matrix (supernatant/HBSS) was removed from cell monolayer and metabolite formation was evaluated by LC/MS-MS analysis. Microphotographs were taken daily to monitor morphological changes.

- induction of CYP2B6 [2]: does not induce
SMILES: CO[C@H]1/C=C/O[C@@]2(C)Oc3c(C)c(O)c4c(O)c(c(/C=N/N5CCN(C)CC5)c(O)c4c3C2=O)NC(=O)/C(C)=C\C=C\[C@H](C)[C@H](O)[C@@H](C)[C@@H](O)[C@@H](C)[C@H](OC(C)=O)[C@@H]1C [RIF, Rifampicin]
- induction of CYP2B6 enzyme activity [1]: induces
